Experimental data published in ChEMBL document CHEMBL1681696, “Discovery of benzimidazole pyrrolidinyl amides as prolylcarboxypeptidase inhibitors” (Bioorg Med Chem Lett, 2011).
Values belong to the molecule of their own block, whether it stands above or below them. Calls of active or inactive are those of the source. No cut-off for these calls is given here.

Experiments:
[1] = molecular target: T1, Lysosomal Pro-X carboxypeptidase (Mus musculus, UniProt Q7TMR0); assay: Inhibition of PrCP in mouse plasma assessed as angiotensin 3 cleavage; format: cell-free
T1 sequence (Q7TMR0 whole entry): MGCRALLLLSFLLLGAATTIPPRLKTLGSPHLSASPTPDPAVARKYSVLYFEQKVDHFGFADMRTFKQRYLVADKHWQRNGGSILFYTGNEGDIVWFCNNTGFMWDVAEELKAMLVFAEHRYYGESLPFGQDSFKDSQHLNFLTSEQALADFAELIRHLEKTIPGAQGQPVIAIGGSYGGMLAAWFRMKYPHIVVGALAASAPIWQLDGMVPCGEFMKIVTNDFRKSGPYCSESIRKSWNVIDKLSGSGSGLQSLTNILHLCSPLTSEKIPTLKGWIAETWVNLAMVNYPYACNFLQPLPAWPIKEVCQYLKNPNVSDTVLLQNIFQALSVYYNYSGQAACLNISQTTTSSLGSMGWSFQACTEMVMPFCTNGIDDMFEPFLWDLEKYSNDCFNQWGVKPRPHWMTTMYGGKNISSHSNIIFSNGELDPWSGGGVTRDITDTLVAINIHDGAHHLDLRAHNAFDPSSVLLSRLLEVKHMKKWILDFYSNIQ

[2] = Clearance in mouse at 1 mg/kg, iv and 2 mg/kg, po; format: ADME, organism-based; conditions: in vivo
[3] = Oral bioavailability in mouse at 2 mg/kg; format: ADME, organism-based; conditions: in vivo
[4] = Half life in mouse at 1 mg/kg, iv and 2 mg/kg, po; format: ADME, organism-based; conditions: in vivo
[5] = molecular target: T1, Lysosomal Pro-X carboxypeptidase; assay: Inhibition of mouse PrCP
[6] = Volume of distribution at steady state in mouse at 1 mg/kg, iv and 2 mg/kg, po; format: ADME, organism-based; conditions: in vivo, read-out: Vdss
[7] = system: Mus musculus; assay: Inhibition of ex vivo PrCP engagement in eDIO mouse plasma at 60 mg/kg, sc by continuous infusion pump for 7 days additionally treated 2 uM of compound; format: functional; conditions: 168 h, route subcutaneous
[8] = Ratio of drug level in brain to plasma in wild type CF1 mouse at 0.5 mg/kg after 0.5 hrs; format: ADME, organism-based; set-up: dose 0.5 mg/kg; conditions: read-out: BPR
[9] = species on record: Mus musculus; conditions: Plasma, 10 mg/kg
Description: Inhibition of ex vivo PrCP engagement in eDIO mouse plasma at 10 mg/kg, sc by continuous infusion pump for 7 days

[10] = Drug level in wild type CF1 mouse plasma at 0.5 mg/kg after 0.5 hrs; format: ADME, organism-based; set-up: dose 0.5 mg/kg; conditions: read-out: Drug uptake
[11] = Drug level in mdr1a deficient mouse plasma at 0.5 mg/kg after 4 hrs; format: ADME, organism-based; set-up: dose 0.5 mg/kg; conditions: read-out: Drug uptake
[12] = Drug level in wild type CF1 mouse brain at 0.5 mg/kg after 0.5 hrs; format: ADME, organism-based; set-up: dose 0.5 mg/kg; conditions: read-out: Drug uptake
[13] = Drug level in mdr1a deficient mouse brain at 0.5 mg/kg after 0.5 hrs; format: ADME, organism-based; set-up: dose 0.5 mg/kg; conditions: read-out: Drug uptake
[14] = species on record: Mus musculus; conditions: Plasma, 30 mg/kg
Description: Inhibition of ex vivo PrCP engagement in eDIO mouse plasma at 30 mg/kg, sc by continuous infusion pump for 7 days

[15] = Drug level in wild type CF1 mouse brain at 0.5 mg/kg after 4 hrs; format: ADME, organism-based; set-up: dose 0.5 mg/kg; conditions: read-out: Drug uptake
[16] = system: Mus musculus; assay: Inhibition of ex vivo PrCP engagement in eDIO mouse plasma at 60 mg/kg, sc by continuous infusion pump for 7 days; format: functional; conditions: 168 h, route subcutaneous
[17] = Ratio of drug level in brain to plasma in mdr1a deficient mouse at 0.5 mg/kg after 4 hrs; format: ADME, organism-based; set-up: dose 0.5 mg/kg; conditions: read-out: BPR
[18] = Plasma concentration in PrCP knockout mouse at 12 mg/kg sc by continuous infusion pump qd for 7 days; format: ADME, organism-based; set-up: dose 12 mg/kg, route subcutaneous
[19] = system: Mus musculus; assay: Antiobesity activity in eDIO mouse assessed as reduction of food intake at 12 mg/kg sc by continuous infusion pump qd for 7 days; format: functional, organism-based; set-up: dose 12 mg/kg
[20] = Drug level in mdr1a deficient mouse brain at 0.5 mg/kg after 4 hrs; format: ADME, organism-based; set-up: dose 0.5 mg/kg; conditions: read-out: Drug uptake
[21] = Drug level in wild type CF1 mouse plasma at 0.5 mg/kg after 4 hrs; format: ADME, organism-based; set-up: dose 0.5 mg/kg; conditions: read-out: Drug uptake
[22] = system: Mus musculus; assay: Antiobesity activity in PrCP knockout mouse assessed as reduction of body weight at 12 mg/kg sc by continuous infusion pump qd for 7 days; format: functional, organism-based; set-up: dose 12 mg/kg
[23] = Plasma concentration in eDIO mouse at 10 to 60 mg/kg, sc by continuous infusion pump for 7 days; format: ADME, organism-based; set-up: dose 10-60 mg/kg, route subcutaneous
[24] = system: Mus musculus; assay: Antiobesity activity in eDIO mouse assessed as reduction of body weight at 12 mg/kg sc by continuous infusion pump qd for 7 days; format: functional, organism-based; set-up: dose 12 mg/kg
[25] = Ratio of drug level in brain to plasma in mdr1a deficient mouse at 0.5 mg/kg after 0.5 hrs; format: ADME, organism-based; set-up: dose 0.5 mg/kg; conditions: read-out: BPR
[26] = Drug level in mdr1a deficient mouse plasma at 0.5 mg/kg after 0.5 hrs; format: ADME, organism-based; set-up: dose 0.5 mg/kg; conditions: read-out: Drug uptake
[27] = Plasma concentration in eDIO mouse at 12 mg/kg sc by continuous infusion pump qd for 7 days; format: ADME, organism-based; set-up: dose 12 mg/kg, route subcutaneous
[28] = system: Mus musculus; assay: Antiobesity activity in PrCP knockout mouse assessed as reduction of food intake at 12 mg/kg sc by continuous infusion pump qd for 7 days; format: functional, organism-based; set-up: dose 12 mg/kg
[29] = Ratio of drug level in brain to plasma in wild type CF1 mouse at 0.5 mg/kg after 4 hrs; format: ADME, organism-based; set-up: dose 0.5 mg/kg; conditions: read-out: BPR
[30] = molecular target: T2, Lysosomal Pro-X carboxypeptidase (Homo sapiens) (UniProt P42785); assay: Inhibition of human PrCP at 5 uM
T2 sequence (whole entry): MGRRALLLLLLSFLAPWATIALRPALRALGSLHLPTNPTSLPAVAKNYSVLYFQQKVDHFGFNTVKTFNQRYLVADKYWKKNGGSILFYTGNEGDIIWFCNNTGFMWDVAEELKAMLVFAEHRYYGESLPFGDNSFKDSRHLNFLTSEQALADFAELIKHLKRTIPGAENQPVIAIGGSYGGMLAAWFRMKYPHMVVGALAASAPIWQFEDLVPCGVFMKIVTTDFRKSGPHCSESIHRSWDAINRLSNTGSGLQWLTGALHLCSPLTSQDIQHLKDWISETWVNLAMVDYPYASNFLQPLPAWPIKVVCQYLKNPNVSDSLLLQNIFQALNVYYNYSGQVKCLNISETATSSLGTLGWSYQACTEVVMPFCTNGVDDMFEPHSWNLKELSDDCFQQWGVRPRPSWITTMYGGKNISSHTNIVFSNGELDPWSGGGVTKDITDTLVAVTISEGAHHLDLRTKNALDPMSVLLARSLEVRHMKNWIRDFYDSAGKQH

Compound: O=C(O)c1ccc(-c2noc(C3CCN(CCC(=O)N4CCC[C@H]4c4nc5cc(Cl)c(Cl)cc5[nH]4)CC3)n2)cc1
IC50 [1]: 241 nM

Compound: CC(C)(CCCC(=O)N1CCC[C@H]1c1nc2cc(Cl)c(Cl)cc2[nH]1)N1CCC(c2nc(-c3ccccn3)no2)CC1
IC50 [1]: 113 nM
clearance [2]: 60 mL/min/kg
bioavailability [3]: 3%
half-life [4]: 3.1 h
IC50 [5]: 19 nM
Vd [6]: 12 L/kg

Compound: O=C(CCN1CCC(c2cn[nH]c2)CC1)N1CCC[C@H]1c1nc2cc(Cl)c(Cl)cc2[nH]1
IC50 [5]: 107 nM

Compound: O=C(CCN1CCC(c2nc(-c3ncccn3)no2)CC1)N1CCC[C@H]1c1nc2cc(Cl)c(Cl)cc2[nH]1
IC50 [1]: 745 nM

Compound: O=C(CCN1CCC(c2nc(-c3cnccn3)no2)CC1)N1CCC[C@H]1c1nc2cc(Cl)c(Cl)cc2[nH]1
IC50 [1]: 435 nM

Compound: CS(=O)(=O)c1ccc(-c2noc(C3CCN(CCC(=O)N4CCC[C@H]4c4nc5cc(Cl)c(Cl)cc5[nH]4)CC3)n2)cc1
IC50 [1]: 10 nM
clearance [2]: 54 mL/min/kg
bioavailability [3]: 14%
half-life [4]: 2.2 h
IC50 [5]: 0.41 nM
Vd [6]: 7.7 L/kg

Compound: O=C(CCN1CCC(c2ccccc2)C1)N1CCC[C@H]1c1nc2cc(Cl)c(Cl)cc2[nH]1 (stereo partly drawn)
inhibition [30]: 93%

Compound: CS(=O)(=O)c1ccc(-c2noc(C3CCN(CCC(=O)N4CCC[C@H]4c4nc5cc(Cl)c(Cl)cc5[nH]4)C(=O)C3)n2)cc1 (stereo partly drawn)
IC50 [1]: 425 nM
clearance [2]: 115 mL/min/kg
bioavailability [3]: 3%
half-life [4]: 1.3 h
Vd [6]: 3 L/kg

Compound: O=C(CCN1CCN(c2ccccc2)CC1)N1CCC[C@H]1c1nc2cc(Cl)c(Cl)cc2[nH]1
IC50 [1]: > 10000 nM

Compound: O=C(CCN1CCC(n2ncnn2)CC1)N1CCC[C@H]1c1nc2cc(Cl)c(Cl)cc2[nH]1
IC50 [1]: 2900 nM

More lines, main results first:

IC50 [1]: 485 nM
Compound: O=C(CCN1CCC(c2cc(-c3ccncc3)[nH]n2)CC1)N1CCC[C@H]1c1nc2cc(Cl)c(Cl)cc2[nH]1

IC50 [1]: 430 nM
Compound: O=C(CCN1CCC(c2ccncc2)CC1)N1CCC[C@H]1c1nc2cc(Cl)c(Cl)cc2[nH]1

IC50 [1]: 173 nM
IC50 [5]: 3.5 nM
Compound: O=C(CCN1CCC(c2nc(-c3ccccn3)no2)CC1)N1CCC[C@H]1c1nc2cc(Cl)c(Cl)cc2[nH]1

IC50 [1]: 155 nM
Compound: O=C(CCN1CCC(c2nc(-c3cccnc3)no2)CC1)N1CCC[C@H]1c1nc2cc(Cl)c(Cl)cc2[nH]1

Kp at 0.5 h [8]: 0.2
concentration at 0.5 h [10]: 54 nM
concentration at 4 h [11]: 4 nM
concentration at 0.5 h [12]: 10 nM
concentration at 0.5 h [13]: 70 nM
concentration at 4 h [15]: 4 nM
IC50 [1]: 6.7 nM
clearance [2]: 65 mL/min/kg
Kp at 4 h [17]: 13
concentration at 168 h [18]: 290 nM
concentration at 4 h [20]: 54 nM
concentration at 4 h [21]: 4.6 nM
bioavailability [3]: 4%
half-life [4]: 4.1 h
concentration at 168 h [23]: 90 nM
Kp at 0.5 h [25]: 1.4
concentration at 0.5 h [26]: 51 nM
concentration at 168 h [27]: 210 nM
IC50 [5]: 0.8 nM
Vd [6]: 9.4 L/kg
Kp at 4 h [29]: 0.88
Compound: Cn1nc(C2CCN(CCC(=O)N3CCC[C@H]3c3nc4cc(Cl)c(Cl)cc4[nH]3)CC2)cc1-c1ccncc1
inhibition in vivo at 60 mg/kg [7]: 80%
inhibition [9]: Active
inhibition [14]: Active
inhibition in vivo at 60 mg/kg [16]: 55%
Activity [19]: Active
Activity [22]: Active
Activity [24]: Active
Activity [28]: Active

IC50 [1]: > 10000 nM
Compound: O=C(CCN1CCC(c2ccccc2)CC1)N1CCC[C@H]1c1nc2cc(Cl)c(Cl)cc2[nH]1

IC50 [1]: 290 nM
Compound: O=C(CCN1CCC(c2cc[nH]n2)CC1)N1CCC[C@H]1c1nc2cc(Cl)c(Cl)cc2[nH]1

IC50 [1]: 39 nM
Compound: Cn1nc(C2CCN(CCC(=O)N3CCC[C@H]3c3nc4cc(Cl)c(Cl)cc4[nH]3)CC2)cc1-c1cccnc1

IC50 [1]: 8000 nM
Compound: O=C(CCN1CCC(c2cnccn2)CC1)N1CCC[C@H]1c1nc2cc(Cl)c(Cl)cc2[nH]1

IC50 [1]: 29 nM
clearance [2]: 38 mL/min/kg
bioavailability [3]: 8%
half-life [4]: 4.9 h
IC50 [5]: 0.53 nM
Vd [6]: 5.7 L/kg
Compound: O=C(CCN1CCC(c2nc(-c3ccncc3)no2)CC1)N1CCC[C@H]1c1nc2cc(Cl)c(Cl)cc2[nH]1
